Values of other authors, collected in patent US20180271760A1, “Skin Care Compositions” (priority 2017, published 2018).
≈ marks a conversion by molar mass, not a printed value.

Assays:
[1] = in 4 weeks

solubility in glycerol and glycols (glycerol and glycols) | solubility in water (water, solubility is pH dependent) [g/L] | SMILES | reduction of TEWL [1] [%]
soluble | 2.1 (≈ 11.2 mM) | O=C(O)CCCCCCCC(=O)O [Azelaic acid] | –
– | – | NC(=O)c1cccnc1 [niacinamide] | 24
